# Tested on: ASPS-1 complex tumor spheroids, viability
# Assay: Anticancer human tumor ASPS-1 cell line growth inhibition;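 further: spheroids exposed to agents for 7 days after 3 days of growth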;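 on viability, T/C: 100% = DMSO vehicle treated spheroids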
# Conditions: for IC50: curve of first compound; for viability, T/C: stronger effect = lower value
# Method in brief: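 Complex tumor spheroids combined malignant cells with endothelial cells and mesenchymal stem cells. DNA-damaging drugs and DNA repair inhibitors were tested alone and in combination, at half-log dilutions down from clinical Cmax (top 10 microM if Cmax unknown), 0.25% DMSO final.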
smiles,measurement,setting,value
CC(C)n1c(=O)n(C)c2cnc3cc(F)c(-c4ccc(OCCCN5CCCCC5)nc4)cc3c21 + Cn1nnc2c(C(N)=O)ncn2c1=O,IC50,second compound 1 µM,8400 nM
same,IC50,second compound 3.16 µM,8140 nM
same,IC50,second compound 10 µM,2560 nM
same,IC50,second compound 31.6 µM,1580 nM
same,IC50,second compound 100 µM,386 nM
same,"viability, T/C","second compound 1 µM, first compound 0.0316 µM",106%
same,"viability, T/C","second compound 1 µM, first compound 0.1 µM",104%
same,"viability, T/C","second compound 1 µM, first compound 0.316 µM",102%
same,"viability, T/C","second compound 1 µM, first compound 1 µM",102%
same,"viability, T/C","second compound 1 µM, first compound 3.16 µM",93.4%
same,"viability, T/C","second compound 1 µM, first compound 10 µM",42.1%
same,"viability, T/C","second compound 3.16 µM, first compound 0.0316 µM",102%
same,"viability, T/C","second compound 3.16 µM, first compound 0.1 µM",102%
same,"viability, T/C","second compound 3.16 µM, first compound 0.316 µM",103%
same,"viability, T/C","second compound 3.16 µM, first compound 1 µM",88.7%
same,"viability, T/C","second compound 3.16 µM, first compound 3.16 µM",82.4%
same,"viability, T/C","second compound 3.16 µM, first compound 10 µM",43%
same,"viability, T/C","second compound 10 µM, first compound 0.0316 µM",91.4%
same,"viability, T/C","second compound 10 µM, first compound 0.1 µM",79.8%
same,"viability, T/C","second compound 10 µM, first compound 0.316 µM",83.5%
same,"viability, T/C","second compound 10 µM, first compound 1 µM",86.7%
same,"viability, T/C","second compound 10 µM, first compound 3.16 µM",42%
same,"viability, T/C","second compound 10 µM, first compound 10 µM",25.4%
same,"viability, T/C","second compound 31.6 µM, first compound 0.0316 µM",81.1%
same,"viability, T/C","second compound 31.6 µM, first compound 0.1 µM",78.1%
same,"viability, T/C","second compound 31.6 µM, first compound 0.316 µM",77.7%
same,"viability, T/C","second compound 31.6 µM, first compound 1 µM",54.7%
same,"viability, T/C","second compound 31.6 µM, first compound 3.16 µM",39.3%
same,"viability, T/C","second compound 31.6 µM, first compound 10 µM",19.9%
same,"viability, T/C","second compound 100 µM, first compound 0.0316 µM",74.5%
same,"viability, T/C","second compound 100 µM, first compound 0.1 µM",60.5%
same,"viability, T/C","second compound 100 µM, first compound 0.316 µM",56.1%
same,"viability, T/C","second compound 100 µM, first compound 1 µM",41.2%
same,"viability, T/C","second compound 100 µM, first compound 3.16 µM",24.4%
same,"viability, T/C","second compound 100 µM, first compound 10 µM",20.2%
